The values that follow come from patent US8193218B2, “Aroyl-piperidine derivatives and method of treating disorders induced by substance P” (Novartis AG, priority 2002, dated 2012).

Data set [1] concerns the target T1, binding of H^3-substance P to bovine retina (Bos taurus, UniProt F1MIX5).
T1 construct: from tissue; host or cells: bovine retina
Briefly: binding of H^3-substance P to bovine retina, radio receptor assay. To be noted: read-out: in vitro values (IC50), inhibition of binding of H^3-substance P to bovine retina. As to the method: In addition, the binding of H^3-substance P to bovine retina in the radio receptor assay according to H. Bittiger, Ciba Foundation Symposium 91, 196-199 (1982) is inhibited with IC50 values of from approximately 1 nmol. For example, the following in vitro values of about 10 nM were obtained for the target compounds of Examples 1 and 2.

T1 sequence (F1MIX5 1-407): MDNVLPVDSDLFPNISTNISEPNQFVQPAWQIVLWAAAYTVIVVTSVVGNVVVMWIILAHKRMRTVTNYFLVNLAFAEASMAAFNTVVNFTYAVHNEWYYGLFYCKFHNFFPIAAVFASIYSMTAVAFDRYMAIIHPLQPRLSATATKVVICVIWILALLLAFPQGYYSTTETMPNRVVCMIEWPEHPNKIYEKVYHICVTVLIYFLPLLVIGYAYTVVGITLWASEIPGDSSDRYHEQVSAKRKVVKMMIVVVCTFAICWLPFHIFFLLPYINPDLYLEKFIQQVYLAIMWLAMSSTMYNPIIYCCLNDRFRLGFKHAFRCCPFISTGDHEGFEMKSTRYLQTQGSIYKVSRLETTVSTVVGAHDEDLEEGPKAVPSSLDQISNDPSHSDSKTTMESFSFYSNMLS

One may read the IC50 as the concentration that inhibits the measured activity by half. By melting point is commonly meant the temperature of the solid-liquid transition. `O=C(N[C@H]1CCN(C(=O)c2cc(C(F)(F)F)cc(C(F)(F)F)c2)[C@H](Cc2ccc(Cl)cc2)C1)c1cc[n+]([O-])c2ccccc12` [Example 1, 1-Oxy-quinoline-4-carboxylic acid [(2R,4S)-1-(3,5-bis-trifluoromethyl-benzoyl)-2-(4-chloro-benzyl)-piperidin-4-yl]-amide] returned a melting point of 223 to 225 °C. Besides, the IC50 in data set [1] was around 10 nM.

The compound `O=C(N[C@H]1CCN(C(=O)c2cc(C(F)(F)F)cc(C(F)(F)F)c2)[C@H](Cc2ccc(Cl)cc2)C1)c1cc(O)nc2ccccc12` [Example 2, 2-Hydroxy-quinoline-4-carboxylic acid [(2R,4S)-1-(3,5-bis-trifluoromethyl-benzoyl)-2-(4-chloro-benzyl)-piperidin-4-yl]-amide] came in with a melting point of 222 to 224 °C. Moreover, the IC50 in data set [1] was around 10 nM.
